Data reported in the NIST ThermoML archive (doi:10.1016/j.fluid.2007.09.028).
± gives the expanded uncertainty stated by the source.

Experiment: xn = mol fraction of the nth substance listed
Settings: 101 kPa, Liquid

Clc1ccccc1 [chlorobenzene] + CCC(C)O
mass density [kg/m3]
Settings	288.15 K	293.15 K	298.15 K	303.15 K	308.15 K	313.15 K
x2 = 0	1111.81 ± 0.3	1106.43 ± 0.29	1101.04 ± 0.28	1095.64 ± 0.28	1090.23 ± 0.27	1084.82 ± 0.26
x2 = 0.0496	1097.45 ± 0.29	1092.02 ± 0.28	1086.59 ± 0.27	1081.16 ± 0.26	1075.72 ± 0.25	1070.28 ± 0.24
x2 = 0.1003	1083.13 ± 0.27	1077.7 ± 0.26	1072.25 ± 0.25	1066.79 ± 0.24	1061.32 ± 0.23	1055.83 ± 0.23
x2 = 0.1501	1069.16 ± 0.25	1063.74 ± 0.24	1058.31 ± 0.23	1052.85 ± 0.23	1047.37 ± 0.22	1041.88 ± 0.21
x2 = 0.2	1055.05 ± 0.23	1049.66 ± 0.23	1044.24 ± 0.22	1038.8 ± 0.21	1033.33 ± 0.2	1027.86 ± 0.19
x2 = 0.2502	1040.78 ± 0.22	1035.43 ± 0.21	1030.05 ± 0.2	1024.63 ± 0.19	1019.19 ± 0.18	1013.73 ± 0.18
x2 = 0.3007	1026.39 ± 0.2	1021.07 ± 0.19	1015.73 ± 0.18	1010.35 ± 0.18	1004.94 ± 0.17	999.501 ± 0.16
x2 = 0.3497	1012.26 ± 0.19	1006.99 ± 0.18	1001.69 ± 0.17	996.346 ± 0.17	990.966 ± 0.18	985.56 ± 0.19
x2 = 0.3999	997.723 ± 0.18	992.501 ± 0.19	987.245 ± 0.19	981.952 ± 0.2	976.612 ± 0.21	971.251 ± 0.22
x2 = 0.4499	983.091 ± 0.21	977.922 ± 0.21	972.717 ± 0.22	967.468 ± 0.23	962.174 ± 0.24	956.834 ± 0.24
x2 = 0.5	968.364 ± 0.24	963.258 ± 0.24	958.109 ± 0.25	952.917 ± 0.26	947.675 ± 0.27	942.399 ± 0.27
x2 = 0.5498	953.525 ± 0.27	948.484 ± 0.27	943.398 ± 0.28	938.263 ± 0.29	933.079 ± 0.29	927.858 ± 0.3
x2 = 0.5999	938.418 ± 0.3	933.448 ± 0.3	928.431 ± 0.31	923.362 ± 0.32	918.237 ± 0.33	913.072 ± 0.33
x2 = 0.6499	923.235 ± 0.33	918.341 ± 0.34	913.397 ± 0.34	908.397 ± 0.35	903.335 ± 0.35	898.213 ± 0.36
x2 = 0.7	907.848 ± 0.36	903.04 ± 0.37	898.18 ± 0.37	893.259 ± 0.38	888.276 ± 0.39	883.238 ± 0.39
x2 = 0.75	892.266 ± 0.39	887.557 ± 0.4	882.791 ± 0.4	877.959 ± 0.41	873.061 ± 0.42	868.109 ± 0.42
x2 = 0.8	876.537 ± 0.42	871.933 ± 0.43	867.265 ± 0.44	862.532 ± 0.44	857.722 ± 0.45	852.839 ± 0.46
x2 = 0.8498	860.576 ± 0.46	856.092 ± 0.46	851.542 ± 0.47	846.918 ± 0.47	842.221 ± 0.48	837.46 ± 0.49
x2 = 0.8997	844.324 ± 0.49	839.965 ± 0.49	835.544 ± 0.5	831.044 ± 0.51	826.464 ± 0.51	821.827 ± 0.52
x2 = 0.9502	827.634 ± 0.52	823.427 ± 0.53	819.146 ± 0.53	814.788 ± 0.54	810.337 ± 0.54	805.821 ± 0.55

Clc1ccccc1 [chlorobenzene] + CCCO
mass density [kg/m3]
Settings	288.15 K	293.15 K	298.15 K	303.15 K	308.15 K	313.15 K
x2 = 0	1111.81 ± 0.3	1106.43 ± 0.29	1101.04 ± 0.28	1095.64 ± 0.28	1090.23 ± 0.27	1084.82 ± 0.26
x2 = 0.0254	1105.92 ± 0.3	1100.51 ± 0.29	1095.1 ± 0.28	1089.69 ± 0.27	1084.26 ± 0.26	1078.83 ± 0.25
x2 = 0.0513	1100.01 ± 0.29	1094.6 ± 0.28	1089.18 ± 0.27	1083.75 ± 0.26	1078.3 ± 0.25	1072.86 ± 0.25
x2 = 0.0726	1095.18 ± 0.28	1089.77 ± 0.27	1084.35 ± 0.26	1078.91 ± 0.26	1073.46 ± 0.25	1068.03 ± 0.24
x2 = 0.0738	1094.9 ± 0.28	1089.49 ± 0.27	1084.07 ± 0.26	1078.63 ± 0.26	1073.18 ± 0.25	1067.73 ± 0.24
x2 = 0.1016	1088.48 ± 0.27	1083.08 ± 0.26	1077.66 ± 0.25	1072.22 ± 0.25	1066.77 ± 0.24	1061.3 ± 0.23
x2 = 0.1058	1087.51 ± 0.27	1082.11 ± 0.26	1076.69 ± 0.25	1071.26 ± 0.24	1065.81 ± 0.24	1060.35 ± 0.23
x2 = 0.1365	1080.3 ± 0.26	1074.91 ± 0.25	1069.5 ± 0.24	1064.08 ± 0.23	1058.63 ± 0.23	1053.17 ± 0.22
x2 = 0.2019	1064.7 ± 0.24	1059.35 ± 0.23	1053.96 ± 0.22	1048.56 ± 0.21	1043.17 ± 0.2	1037.75 ± 0.2
x2 = 0.2472	1053.55 ± 0.22	1048.23 ± 0.21	1042.89 ± 0.21	1037.53 ± 0.2	1032.14 ± 0.19	1026.73 ± 0.18
x2 = 0.2984	1040.5 ± 0.2	1035.23 ± 0.2	1029.94 ± 0.19	1024.62 ± 0.18	1019.26 ± 0.17	1013.88 ± 0.16
x2 = 0.3443	1028.6 ± 0.19	1023.38 ± 0.18	1018.13 ± 0.17	1012.85 ± 0.16	1007.53 ± 0.16	1002.2 ± 0.15
x2 = 0.4027	1012.95 ± 0.17	1007.78 ± 0.16	1002.6 ± 0.15	997.378 ± 0.15	992.12 ± 0.16	986.836 ± 0.17
x2 = 0.4952	986.837 ± 0.17	981.797 ± 0.18	976.724 ± 0.19	971.618 ± 0.19	966.472 ± 0.2	961.296 ± 0.21
x2 = 0.5492	970.777 ± 0.2	965.817 ± 0.2	960.824 ± 0.21	955.797 ± 0.22	950.728 ± 0.23	945.63 ± 0.23
x2 = 0.5975	955.977 ± 0.22	951.086 ± 0.23	946.167 ± 0.24	941.211 ± 0.24	936.213 ± 0.25	931.183 ± 0.26
x2 = 0.6447	940.98 ± 0.25	936.176 ± 0.25	931.338 ± 0.26	926.463 ± 0.27	921.545 ± 0.28	916.599 ± 0.28
x2 = 0.699	923.003 ± 0.28	918.296 ± 0.28	913.559 ± 0.29	908.798 ± 0.3	903.973 ± 0.3	899.127 ± 0.31
x2 = 0.7494	905.686 ± 0.3	901.079 ± 0.31	896.443 ± 0.32	891.773 ± 0.33	887.057 ± 0.33	882.312 ± 0.34
x2 = 0.8008	887.239 ± 0.34	882.746 ± 0.34	878.223 ± 0.35	873.664 ± 0.35	869.063 ± 0.36	864.438 ± 0.37
x2 = 0.8473	869.896 ± 0.36	865.508 ± 0.37	861.093 ± 0.38	856.643 ± 0.38	852.152 ± 0.39	847.622 ± 0.4
x2 = 0.8955	851.18 ± 0.39	846.915 ± 0.4	842.621 ± 0.41	838.296 ± 0.41	833.934 ± 0.42	829.53 ± 0.43
x2 = 0.9192	841.722 ± 0.41	837.516 ± 0.42	833.28 ± 0.42	829.014 ± 0.43	824.709 ± 0.43	820.375 ± 0.44
x2 = 0.9497	829.134 ± 0.43	825.009 ± 0.44	820.857 ± 0.44	816.677 ± 0.45	812.457 ± 0.46	808.213 ± 0.46

Clc1ccccc1 [chlorobenzene] + CCCCO
mass density [kg/m3]
Settings	288.15 K	293.15 K	298.15 K	303.15 K	308.15 K	313.15 K
x2 = 0	1111.81 ± 0.3	1106.43 ± 0.29	1101.04 ± 0.28	1095.64 ± 0.28	1090.23 ± 0.27	1084.82 ± 0.26
x2 = 0.0491	1098.36 ± 0.29	1092.97 ± 0.28	1087.57 ± 0.27	1082.16 ± 0.26	1076.75 ± 0.25	1071.34 ± 0.25
x2 = 0.1013	1084.16 ± 0.27	1078.81 ± 0.26	1073.45 ± 0.25	1068.07 ± 0.24	1062.67 ± 0.23	–
x2 = 0.1492	1071.13 ± 0.25	1065.83 ± 0.24	1060.5 ± 0.23	1055.16 ± 0.22	1049.8 ± 0.21	1044.42 ± 0.2
x2 = 0.2004	1057.1 ± 0.23	1051.85 ± 0.22	1046.57 ± 0.21	1041.28 ± 0.2	1035.97 ± 0.2	1030.63 ± 0.19
x2 = 0.2501	1043.32 ± 0.21	1038.12 ± 0.2	1032.91 ± 0.19	1027.68 ± 0.18	1022.42 ± 0.18	1017.14 ± 0.17
x2 = 0.3	1029.41 ± 0.19	1024.28 ± 0.18	1019.13 ± 0.17	1013.96 ± 0.17	1008.76 ± 0.16	1003.55 ± 0.15
x2 = 0.3507	1015.11 ± 0.17	1010.04 ± 0.16	1004.96 ± 0.15	999.858 ± 0.15	994.721 ± 0.15	989.562 ± 0.16
x2 = 0.4	1001.06 ± 0.15	996.06 ± 0.15	991.039 ± 0.16	985.993 ± 0.17	980.92 ± 0.18	975.825 ± 0.18
x2 = 0.4502	986.537 ± 0.17	981.622 ± 0.18	976.686 ± 0.18	971.72 ± 0.19	966.72 ± 0.2	961.715 ± 0.21
x2 = 0.5	972.013 ± 0.19	967.172 ± 0.2	962.314 ± 0.21	957.429 ± 0.21	952.506 ± 0.22	947.561 ± 0.23
x2 = 0.5499	957.246 ± 0.22	952.491 ± 0.22	947.717 ± 0.23	942.914 ± 0.24	938.072 ± 0.24	933.199 ± 0.25
x2 = 0.5998	942.296 ± 0.24	937.639 ± 0.25	932.95 ± 0.26	928.23 ± 0.26	923.477 ± 0.27	918.689 ± 0.28
x2 = 0.6504	926.891 ± 0.27	922.329 ± 0.27	917.738 ± 0.28	913.116 ± 0.29	908.455 ± 0.29	903.772 ± 0.3
x2 = 0.7002	911.543 ± 0.29	907.078 ± 0.3	902.582 ± 0.31	898.054 ± 0.31	893.49 ± 0.32	888.906 ± 0.33
x2 = 0.749	896.297 ± 0.32	891.927 ± 0.32	887.529 ± 0.33	883.097 ± 0.34	878.634 ± 0.34	874.13 ± 0.35
x2 = 0.7995	880.209 ± 0.34	875.948 ± 0.35	871.658 ± 0.36	867.339 ± 0.36	862.977 ± 0.37	858.585 ± 0.38
x2 = 0.849	864.175 ± 0.37	860.018 ± 0.38	855.838 ± 0.38	851.632 ± 0.39	847.387 ± 0.4	843.125 ± 0.4
x2 = 0.9006	847.199 ± 0.4	843.162 ± 0.4	839.105 ± 0.41	835.018 ± 0.42	830.894 ± 0.42	826.737 ± 0.43
x2 = 0.9505	830.398 ± 0.43	826.483 ± 0.43	822.545 ± 0.44	818.578 ± 0.44	814.579 ± 0.45	810.547 ± 0.46
